{
  "source": "patent US11932663B2",
  "about": "(CanWell Biotech Limited, priority 2020, dated 2024)",
  "data": [
    {"system": "Human PBMC", "assay": "TLR7/8 agonists induce cytokine release in human PBMC (ELISA of culture supernatant)", "assay_type": "cell-based", "conditions": "24 h incubation, lowest concentration inducing cytokine at least 2x greater than negative control wells", "protocol": "Example 8. TLR7/8 Agonists Induce IFN-Gamma and TNF-Alpha Release in Human PBMC\nThe system is used to assess the cytokines release. Activity is based on the measurement of interferon-gamma (IFN-γ) and tumor necrosis factor-alpha (TNF-α) secreted into culture media.\nFresh human blood was diluted with the same volume of PBS, 15 mL Lymphoprep was added into a Sepmate tube, then 30 mL diluted blood was added on the top gently without disturbing the interface.\nThe Sepmate tube was centrifuged for 25 min at 1000×g at RT with brake off.\nThe buffy coat containing peripheral blood mononuclear cells (PBMCs) was collected from Sepmate tube and transferred into a new tube, and the cells were washed with 40 mL PBS twice and centrifuged at 350×g for 5 min.\nPBMCs were resuspended in complete culture medium at a density of 2E6/ml.\nThe compounds are solubilized in dimethyl sulfoxide (DMSO) and diluted into indicated concentration with complete culture medium.\n2*10^5 PBMCs (in 100 μL) were added to each well of 96-well flat bottom plate.\n2× final concentration of 3-fold serial diluted compounds (in 100 μL) were added to indicated wells and final volume was 200 μL.\nThe plate was covered with sterile lids, mixed gently and then incubated for 24 h at 37° C./5% CO2 incubator.\nFollowing incubation, the plates was centrifuged for 5 min. at 400×g. The cell-free culture Supernatant was removed into a non-sterile polypropylene plate. Samples are maintained at −80° C. until analysis. The samples were analyzed for TNF-α and IFN-γ by ELSA according to the direction.\nTNF-α and IFN-α were analyzed by ELISA. IFN-α concentration was determined by ELISA using a Human IFN-α ELISA Kit from R&D Systems (Catalog #41100-2) and read on VICTOR Nivo™ from PerkinElmer. Results were expressed in pg/mL. TNF-α concentration was determined by ELISA using a Human TNF-alpha ELISA MAX™ Deluxe from BioLegend (Catalog #430205) and read on VICTOR Nivo™ from PerkinElmer. Results were expressed in pg/mL.\nSpecifically, the MEC of each compound (micromolar) was determined as the lowest concentration of the compound that induced a measured cytokine response at a level ([…]) that was at least 2× greater than that observed with the negative control wells.", "units": {"MEC to induce cytokine IFN-alpha": "µM", "MEC to induce cytokine TNF-alpha": "µM"}, "values": [
      {"compound": "CCCCc1nc2c(N)nc3cc(P(C)(C)=O)ccc3c2n1OCCCCN", "note": "[Example 1, (4-amino-1-(4-aminobutoxy)-2-butyl-1H-imidazo[4,5-c]quinolin-7-yl)dimethylphosphine oxide]", "MEC to induce cytokine IFN-alpha": 0.046, "MEC to induce cytokine TNF-alpha": 3.7},
      {"compound": "CCCCCCCCCCCCCCCCCNc1c(NCCCCOn2c(CCCC)nc3c(N)nc4cc(P(=O)(CC)CC)ccc4c32)c(=O)c1=O", "note": "[Example 7, 3-(4-(4-amino-2-butyl-7-(diethylphosphoryl)-1H-imidazo[4,5-c]quinolin-1-yloxy)butylamino)-4-(heptadecylamino)cyclobut-3-ene-1,2-dione]", "MEC to induce cytokine IFN-alpha": 0.015, "MEC to induce cytokine TNF-alpha": 3.7},
      {"compound": "CCCCCCCCCCCCCCCCCNc1c(NCCCCOn2c(CCCC)nc3c(N)nc4cc(P(C)(C)=O)ccc4c32)c(=O)c1=O", "note": "[Example 4]", "MEC to induce cytokine IFN-alpha": 1.73, "MEC to induce cytokine TNF-alpha": 11.1},
      {"compound": "CCCCCCCCCCCCCCCCCc1cn(CCCCOn2c(CCCC)nc3c(N)nc4cc(P(C)(C)=O)ccc4c32)nn1", "note": "[Example 6, (4-amino-2-butyl-1-(4-(4-heptadecyl-1H-1,2,3-triazol-1-yl)butoxy)-1H-imidazo[4,5-c]quinolin-7-yl)dimethylphosphine oxide]", "MEC to induce cytokine IFN-alpha": ">33.3", "MEC to induce cytokine TNF-alpha": ">33.3"},
      {"compound": "CCCCc1nc2c(N)nc3cc(P(=O)(CC)CC)ccc3c2n1OCCCCN", "note": "[Example 2, (4-amino-1-(4-aminobutoxy)-2-butyl-1H-imidazo[4,5-c]quinolin-7-yl)diethylphosphine oxide]", "MEC to induce cytokine IFN-alpha": 0.137, "MEC to induce cytokine TNF-alpha": 11.1},
      {"compound": "CCCCCCCCCCCCCCCCCC(=O)NCCCCOn1c(CCCC)nc2c(N)nc3cc(P(C)(C)=O)ccc3c21", "note": "[Example 3, N-(4-((4-amino-2-butyl-7-(dimethylphosphoryl)-1H-imidazo[4,5-c]quinolin-1-yl)oxy)butyl)stearamide]", "MEC to induce cytokine IFN-alpha": 0.015, "MEC to induce cytokine TNF-alpha": 0.015}
    ]}
  ]
}
